# Data: patent US5760036A, “Aminediol protease inhibitors” (E. R. Squibb & Sons, Inc., priority 1995, dated 1998)
# Target: T1, HIV protease (Human immunodeficiency virus type 1 group M subtype B, UniProt P04585)
# T1 construct: and purified protease
# Assay: HIV Protease Assay
# Assay type: biochemical
# Details: 10 μM inhibitor, 4% DMSO, 450 μM substrate, pH 5.5, 30 minutes at 37° C., RP-HPLC
# Procedure: An HIV protease standard assay was performed in a 60 μl reaction medium containing 50 mM sodium acetate, pH 5.5, 100 μg/ml bovine serum albumen,450 μM substrate (H2 N-Val-Ser-Gln-Asn-(β-naphthyl-alanine)-Pro-Val-Ile-OH), and purified protease. The reaction medium was incubated for 30 minutes at 37° C., quenched by the addition of 140 μl 5% H3 PO4, then analyzed by reverse phase HPLC using UV220 detection. In a typical control assay, 7% of the substrate was hydrolyzed. Aminediol inhibitors of the present invention, listed in the following Table 1, were then employed in the assay, for which purpose they were prepared as a […] solution in DMSO, then diluted to 30 μM with 50 mM sodium acetate/bovine serum albumen. This working stock was then diluted three-fold into the protease reaction medium, for a final concentration of 10 μM inhibitor and 4% DMSO.
row,SMILES,HIV Protease % Inhibition at 10 μM [%]
1,"CC(C)(C)OC(=O)N[C@@H](Cc1ccccc1)[C@H](O)CNC[C@@H](O)[C@H](Cc1ccccc1)NC(=O)C1NC(=O)OC1(C)C (single isomer, unassigned; isomer a) [Compound 239, [1S-[1R*,2S*(2S*,3R*)]]-[3-[[3-[[(5,5-Dimethyl-2-oxo-4-oxazolidinyl)carbonyl]amino]-2-hydroxy-4-phenylbutyl]amino]-2-hydroxy-1-(phenylmethyl)propyl]carbamic acid, 1,1-dimethylethyl ester, isomer A]",37
2,"CC(C)(C)OC(=O)N[C@@H](Cc1ccccc1)[C@H](O)CNC[C@@H](O)[C@H](Cc1ccccc1)NC(=O)C1(O)CCc2ccccc21 (single isomer, unassigned; isomer b) [Compound 376, [1S-[1R*,2S*(2S*, 3R*)]]-[3-[[3-[[(2,3-Dihydro-1-hydroxy-1H-inden-1-yl)carbonyl]amino]-2-hydroxy-4-phenylbutyl]amino]-2-hydroxy-1-(phenylmethyl)propyl]carbamic acid, 1.1-dimethylethyl ester, isomer B]",63

# Same assay, conditions: pH 5.5, 10 μM inhibitor, 4% DMSO, 450 μM substrate, pH 5.5, 30 minutes at 37° C., RP-HPLC; read-out: HIV Protease % Inhibition at 10 μM
row,SMILES,inhibition at 10 µM [%]
1,"CC(C)C[C@H](NC(=O)OC(C)(C)C)C(O)CN(Cc1ccccc1)CC(O)[C@H](CC(C)C)NC(=O)OC(C)(C)C (stereo partly drawn) [Compound 196, (3S,3S')-[[(Phenylmethyl)nitrilo]-bis(2-hydroxy-5-methyl-3,1-hexandiyl)]-biscarbamic acid, bis(1,1-dimethylethyl)ester]",6
2,"CC(C)(C)OC(=O)N[C@@H](Cc1ccccc1)C(=O)N[C@@H](Cc1ccccc1)[C@H](O)CNC[C@@H](O)[C@H](Cc1ccccc1)NC(=O)OC(C)(C)C [Compound 56, [S-[1R*,2S*(2S*,3R*)]-N^2-[(1,1-Dimethylethoxy)carbonyl]-N-[3-[[3-[[(1,1-dimethlethoxy)carbonyl]amino]-2-hydroxy-4-phenylbutyl]-amino]-2-hydroxy-1-(phenylmethyl)propyl]-L-phenylalaninamide]",47
3,"CC(C)(C)OC(=O)N[C@@H](Cc1ccccc1)[C@H](O)CNC[C@@H](O)[C@H](Cc1ccccc1)NC(=O)[C@H](CCCCN)NC(=O)OCc1ccccc1 [Compound 89, [S-[1R*,2S*(2S*,3R*)[[-N-[3-[[3-[[(1,1-Dimethylethoxy)carbonyl]amino]-2-hydroxy-4-phenylbutyl]amino]-2-hydroxy-1-(phenylmethyl)-propyl]-N2-[(phenylmethoxy)carbonyl]-L-lysinamide]",23
4,"CC(C)(C)OC(=O)N[C@@H](Cc1ccccc1)[C@H](O)CNC[C@@H](O)[C@H](Cc1ccccc1)NC(=O)NCc1ccccc1 (relative stereo) [Compound 57, [1R*,2S*(2S*,3R*)]-[2-Hydroxy-3[[2-hydroxy-4-phenyl-3-[[[(phenylmethyl)amino]-carbonyl]amino]butyl]amino]-1-(phenylmethyl)-propyl]carbamic acid, 1,1-dimethylethyl ester]",46
5,"CC(C)(C)OC(=O)N[C@@H](Cc1ccccc1)[C@H](O)CNC[C@@H](O)[C@H](Cc1ccccc1)NC(=O)OCc1ncc[nH]1 [Compound 268, [R-(R*,S*)]-[Iminobis[2-hydroxy-1-(phenylmethyl)-3,1-propanediyl)]biscarbamic acid, (1H-imidazol-2-yl)-methyl 1,1-dimethylethyl ester]",94
6,"CC(C)(C)OC(=O)N[C@@H](Cc1ccccc1)[C@H](O)CNC[C@@H](O)[C@H](Cc1ccccc1)NC(=O)O[C@@H]1COC[C@H]1O [Compound 317, [1S-(1R*,2S*), (3R-trans)l-[Iminobis[2-hydroxy-1-(phenylmethyl)-3,1-propanediyl]]bis[carbamic acid], 4-hydroxy-3-tetrahydrofuranyl 1,1-dimethylethyl ester]",85

# Same assay, conditions: pH 5.5, read-out: HIV Protease % Inhibition at 10 μM
row,SMILES,inhibition at 10 µM [%]
1,"CC(C)(C)OC(=O)N[C@@H](Cc1ccccc1)[C@H](O)CNC[C@@H](O)[C@H](Cc1ccccc1)NC(=O)OC(C)(C)CN [Compound 216, [1S-(1R*,2S*)]-[Iminobis[2-hydroxy-1-(phenylmethyl)-3,1-propanediyl]]biscarbamic acid. 2-amino-1,1-dimethylethyl-1,1-dimethylethyl ester]",49
